Activity calls are given as the source filed them.
Tests used:
Coagulation factor XII = biological target: T1, Coagulation factor XII (Homo sapiens, UniProt P00748); type: functional;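 further: activated factor XIIa alpha cleaving a fluorogenic AMC peptide substrate; inhibitor potency from loss of enzyme activity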
T1 sequence (P00748 whole entry): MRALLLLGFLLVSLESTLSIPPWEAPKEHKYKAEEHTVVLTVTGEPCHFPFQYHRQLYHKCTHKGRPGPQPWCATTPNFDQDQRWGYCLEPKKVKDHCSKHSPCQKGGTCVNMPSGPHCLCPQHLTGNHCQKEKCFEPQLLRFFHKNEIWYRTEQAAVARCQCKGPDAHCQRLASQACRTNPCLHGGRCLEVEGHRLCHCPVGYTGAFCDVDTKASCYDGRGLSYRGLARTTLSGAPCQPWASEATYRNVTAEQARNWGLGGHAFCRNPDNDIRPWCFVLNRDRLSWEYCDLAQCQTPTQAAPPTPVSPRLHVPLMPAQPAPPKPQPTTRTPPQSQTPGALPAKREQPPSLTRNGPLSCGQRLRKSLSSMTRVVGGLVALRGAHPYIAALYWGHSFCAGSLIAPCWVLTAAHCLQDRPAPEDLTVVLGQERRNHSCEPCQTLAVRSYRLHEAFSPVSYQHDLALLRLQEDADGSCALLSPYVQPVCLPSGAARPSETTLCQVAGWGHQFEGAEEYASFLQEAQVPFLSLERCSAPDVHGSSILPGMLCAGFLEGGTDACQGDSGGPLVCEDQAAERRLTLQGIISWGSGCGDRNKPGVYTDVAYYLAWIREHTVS

[1] = biological target: Glucose-6-phosphate 1-dehydrogenase (Homo sapiens, UniProt P11413); assay: human G6PD enzyme inhibitors, dose response, selectivity assay for P. falciparum G6PD inhibitor project, biochemical, fluorescence (AID 504792); type: functional
[2] = biological target: DNA dC->dU-editing enzyme APOBEC-3G (Homo sapiens, UniProt Q9HC16); assay: Dose Response confirmation of small molecule APOBEC3G DNA Deaminase Inhibitors via a fluorescence-based single-stranded DNA deaminase assay. [Related pubchem assays (depositor defined):AID493012, AID493028]; type: functional
[3] = biological target: T2, Serine/threonine-protein phosphatase (Candida dubliniensis (strain CD36 / CBS 7987 / NCPF 3949 / NRRLY-17841) (Yeast), UniProt B9W6M3); assay: calcineurin pathway inhibitors in yeast reporter, dose response, S. cerevisiae, CDRE-lacZ, luminescence, secondary (AID 2388); type: functional, cell-based;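 further: yeast reporter cells carrying a calcineurin-responsive lacZ construct stimulated with calcium chloride; luminescent beta-galactosidase reporter signal in whole cells rather than isolated phosphatase activity; potency for inhibition where a drop in reporter signal means calcineurin blockade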
T2 sequence (B9W6M3 whole entry): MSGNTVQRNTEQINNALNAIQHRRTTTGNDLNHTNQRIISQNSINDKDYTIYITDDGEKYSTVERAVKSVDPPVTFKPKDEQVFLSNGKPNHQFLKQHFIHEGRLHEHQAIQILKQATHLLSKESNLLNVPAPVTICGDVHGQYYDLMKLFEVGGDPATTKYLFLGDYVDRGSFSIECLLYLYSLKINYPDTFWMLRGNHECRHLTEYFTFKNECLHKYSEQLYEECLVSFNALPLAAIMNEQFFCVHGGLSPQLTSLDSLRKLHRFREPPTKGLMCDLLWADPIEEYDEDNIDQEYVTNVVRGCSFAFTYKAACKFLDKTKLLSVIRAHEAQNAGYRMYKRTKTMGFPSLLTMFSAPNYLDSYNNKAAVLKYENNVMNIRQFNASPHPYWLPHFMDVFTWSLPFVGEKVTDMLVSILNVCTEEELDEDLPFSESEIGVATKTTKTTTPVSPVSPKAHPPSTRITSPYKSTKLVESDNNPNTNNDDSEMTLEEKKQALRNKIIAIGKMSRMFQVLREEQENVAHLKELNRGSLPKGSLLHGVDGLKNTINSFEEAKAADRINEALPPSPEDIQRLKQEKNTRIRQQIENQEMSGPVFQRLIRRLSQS

[4] = biological target: T3, Ubiquitin-conjugating enzyme E2 N (Homo sapiens, UniProt P61088); type: functional
T3 sequence (P61088 whole entry): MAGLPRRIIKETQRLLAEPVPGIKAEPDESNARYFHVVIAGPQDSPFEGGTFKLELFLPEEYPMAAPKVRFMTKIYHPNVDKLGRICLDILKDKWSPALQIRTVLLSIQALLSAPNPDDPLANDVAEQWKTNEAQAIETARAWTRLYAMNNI

[5] = C. albicans growth with fluconazole, confirmation, fluorescence, retest (AID 2467); type: functional, cell-based
[6] = biological target: ATP-dependent molecular chaperone HSP82 (Candida albicans (strain WO-1) (Yeast), UniProt C4YTQ8); assay: loss of DOC-induced GRE-beta-galactosidase reporter signal, dose response, Hsp90 inhibitor project, S. cerevisiae, luminescence (AID 2400); type: functional, cell-based;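 further: beta-galactosidase luminescence from glucocorticoid response element reporter as proxy for Hsp90 function; inhibitor potency where signal loss means Hsp90 inhibition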
[7] = NIH-3T3 fibroblast cytotoxicity, dose response, cytotoxicity control, cell-based, fluorescence, Alamar Blue, secondary assay (AID 2327); type: functional;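 further: NIH-3T3 mouse fibroblasts cultured with fluconazole at 8 µg/mL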
[8] = biological target: T3, Ubiquitin-conjugating enzyme E2 N; type: functional; remark: listed apart in the source
[9] = biological target: Heat shock protein HSP 90-alpha (Homo sapiens, UniProt P07900); type: functional, organism-based
Bcl-2-related protein A1 = biological target: T4, Bcl-2-related protein A1 (Mus musculus, UniProt Q07440); type: functional;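 further: confirmatory dose–response counterscreen on Bfl-1, used to check hits from a UBC13 polyubiquitin inhibitor campaign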
T4 sequence (Q07440 whole entry): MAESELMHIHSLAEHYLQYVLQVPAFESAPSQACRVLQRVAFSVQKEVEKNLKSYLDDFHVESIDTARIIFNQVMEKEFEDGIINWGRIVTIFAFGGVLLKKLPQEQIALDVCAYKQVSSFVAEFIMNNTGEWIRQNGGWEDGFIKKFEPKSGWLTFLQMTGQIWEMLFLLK

[10] = biological target: Glyceraldehyde-3-phosphate dehydrogenase (Homo sapiens, UniProt P04406)
[11] = biological target: T5, Alkaline phosphatase, tissue-nonspecific isozyme (Homo sapiens, UniProt P05186); assay: human TNAP enzyme inhibitors, SAR follow-up, biochemical, luminescent, dose response (AID 1056)
T5 sequence (P05186 whole entry): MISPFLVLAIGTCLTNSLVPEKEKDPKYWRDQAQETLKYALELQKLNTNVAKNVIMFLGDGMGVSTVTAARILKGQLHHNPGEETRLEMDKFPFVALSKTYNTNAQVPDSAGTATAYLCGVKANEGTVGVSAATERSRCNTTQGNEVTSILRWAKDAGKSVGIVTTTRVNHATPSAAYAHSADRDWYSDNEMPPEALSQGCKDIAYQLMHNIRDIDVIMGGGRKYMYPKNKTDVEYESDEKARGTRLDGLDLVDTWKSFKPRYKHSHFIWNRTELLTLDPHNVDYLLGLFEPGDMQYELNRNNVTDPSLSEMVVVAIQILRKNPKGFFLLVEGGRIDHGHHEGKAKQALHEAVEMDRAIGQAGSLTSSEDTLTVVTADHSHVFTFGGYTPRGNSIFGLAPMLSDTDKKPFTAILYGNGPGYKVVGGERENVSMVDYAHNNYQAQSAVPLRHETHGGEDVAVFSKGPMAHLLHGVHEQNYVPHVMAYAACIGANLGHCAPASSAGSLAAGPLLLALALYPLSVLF

[12] = biological target: 5-hydroxytryptamine receptor 5A (Homo sapiens, UniProt P47898); assay: Counterscreen for agonists of OPRM1-OPRD1 heterodimerization: luminescence-based cell-based high throughput dose response assay to identify agonists of 5-hydroxytryptamine (serotonin) 5A receptor (HTR5A). [Related pubchem assays (depositor defined):AID504326, AID504355, AID504692, AID504904, AID504905]; type: functional
[13] = biological target: Delta-type opioid receptor (Homo sapiens, UniProt P41143); assay: Counterscreen for agonists of heterodimerization of the mu 1 (OPRM1) and delta 1 (OPRD1) opioid receptors: Luminescence-based cell-based high throughput dose response assay to identify agonists of OPRD1 homodimerization. [Related pubchem assays (depositor defined):AID504326, AID504355, AID504692, AID504904, AID504905]; type: functional
Mu-type opioid receptor = Mu-type opioid receptor (Homo sapiens, UniProt P35372); assay: Counterscreen for agonists of heterodimerization of the mu 1 (OPRM1) and delta 1 (OPRD1) opioid receptors: Luminescence-based cell-based high throughput dose response assay to identify agonists of OPRM1 homodimerization.; type: functional;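 further: U2OS cells expressing OPRM1 and beta-arrestin as split beta-galactosidase partners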
Large T antigen = Large T antigen (Simian virus 40, UniProt P03070); type: functional, Betapolyomavirus macacae;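 further: Confirmatory-stage PubChem screen for compounds that inhibit SV40 T antigen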
HEK293 [14] = assay: NOD1 signaling inhibitors, primary screen, cell-based, luminescence, uHTS (AID 1578); type: functional; details: Homo sapiens
HEK293 [15] = assay: cells; type: functional, cell-based; details: Homo sapiens
HEK293 [16] = assay: NOD2 signaling inhibitors in MDP-stimulated cells, cell-based, uHTS, luminescence (AID 2001); type: functional; details: Homo sapiens
[17] = biological target: FAD-linked sulfhydryl oxidase ALR (Homo sapiens, UniProt P55789); assay: inhibitors of human ALR sulfhydryl oxidase, dose response, biochemical, H2O2 detection, luminescence, cherry-pick (AID 493248)
Genome polyprotein = Genome polyprotein (dengue virus type 2, UniProt P29990); assay: Dengue-2 NS5 methyltransferase inhibitors, primary screen, biochemical, confirmation dose response (AID 588689); type: functional
Streptococcus = assay: Group A Streptococcus viability loss, dose response, counter-screen for streptokinase expression inhibitor project, luminescence, BacTiterGlo (AID 1915); type: functional, organism-based;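 further: potency for reduction of bacterial viability or growth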
[18] = test system: Streptococcus sp. 'group A'; assay: growth inhibition of control SK(-) GAS strain, dose response, counter-screen for streptokinase expression inhibitor project, luminescence, kanamycin, BacTiterGlo, confirmation (AID 1900); type: functional, organism-based
[19] = inhibitors of firefly luciferase expression or activity, dose response, H4 neuroglioma cells, luminescence (AID 1990); type: functional, cell-based
INS1 = assay: beta cell apoptosis inhibitors, cytokine rescue, dose response, luminescence, retest (AID 449756); type: functional, cell-based; details: Rattus norvegicus;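 further: cell death triggered by IL-1 beta plus TNF-alpha plus IFN-gamma mixture; protective hits raise ATP signal compared with cytokine alone wells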
[20] = Luminescence Cell-Based Dose Response HTS to Identify Inhibitors of 5'UTR Stem-Loop Driven Prion Protein mRNA Translation in H4 Neuroglioblastoma Cells. [Related pubchem assays: 1827 (Project Summary), 1813 (Primary HTS)]; type: functional
[21] = inhibitors of SNCA 5'UTR-driven reporter translation, confirmation, H4 neuroglioma cells, luminescence (AID 1988); type: functional, cell-based

Sequence of Delta-type opioid receptor (P41143 whole entry): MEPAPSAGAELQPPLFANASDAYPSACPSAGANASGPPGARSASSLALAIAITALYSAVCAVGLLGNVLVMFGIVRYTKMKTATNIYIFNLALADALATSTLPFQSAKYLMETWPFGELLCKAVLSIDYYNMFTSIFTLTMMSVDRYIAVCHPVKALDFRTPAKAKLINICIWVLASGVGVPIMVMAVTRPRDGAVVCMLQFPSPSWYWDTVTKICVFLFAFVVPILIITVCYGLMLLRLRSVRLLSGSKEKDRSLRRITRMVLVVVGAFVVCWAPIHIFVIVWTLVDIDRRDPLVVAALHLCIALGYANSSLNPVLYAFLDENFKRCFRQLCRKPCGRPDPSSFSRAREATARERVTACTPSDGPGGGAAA
Sequence of Glucose-6-phosphate 1-dehydrogenase (P11413 whole entry): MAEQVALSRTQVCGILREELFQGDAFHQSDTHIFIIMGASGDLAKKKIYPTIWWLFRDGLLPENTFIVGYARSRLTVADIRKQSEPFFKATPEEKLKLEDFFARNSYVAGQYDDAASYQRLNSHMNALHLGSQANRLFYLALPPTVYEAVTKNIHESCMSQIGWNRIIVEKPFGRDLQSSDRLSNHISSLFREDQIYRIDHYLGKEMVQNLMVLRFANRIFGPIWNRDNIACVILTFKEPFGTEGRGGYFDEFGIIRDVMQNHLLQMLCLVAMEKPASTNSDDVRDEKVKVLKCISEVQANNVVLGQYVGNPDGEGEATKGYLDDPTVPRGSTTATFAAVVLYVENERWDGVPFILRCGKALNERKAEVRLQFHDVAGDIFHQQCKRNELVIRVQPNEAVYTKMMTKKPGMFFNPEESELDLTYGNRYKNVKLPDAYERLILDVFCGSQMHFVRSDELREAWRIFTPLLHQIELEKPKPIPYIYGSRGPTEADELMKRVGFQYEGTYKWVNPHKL
Sequence of 5-hydroxytryptamine receptor 5A (P47898 whole entry): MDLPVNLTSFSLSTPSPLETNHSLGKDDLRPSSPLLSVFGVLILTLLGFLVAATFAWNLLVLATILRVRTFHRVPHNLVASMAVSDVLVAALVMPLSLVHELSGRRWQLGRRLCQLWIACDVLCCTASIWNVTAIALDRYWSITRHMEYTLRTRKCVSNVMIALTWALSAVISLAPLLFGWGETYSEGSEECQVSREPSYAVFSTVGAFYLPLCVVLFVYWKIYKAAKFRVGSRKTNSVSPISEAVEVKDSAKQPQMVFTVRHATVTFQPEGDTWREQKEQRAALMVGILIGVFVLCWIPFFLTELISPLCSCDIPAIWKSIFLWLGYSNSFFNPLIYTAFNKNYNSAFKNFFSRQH
Sequence of Mu-type opioid receptor (P35372 whole entry): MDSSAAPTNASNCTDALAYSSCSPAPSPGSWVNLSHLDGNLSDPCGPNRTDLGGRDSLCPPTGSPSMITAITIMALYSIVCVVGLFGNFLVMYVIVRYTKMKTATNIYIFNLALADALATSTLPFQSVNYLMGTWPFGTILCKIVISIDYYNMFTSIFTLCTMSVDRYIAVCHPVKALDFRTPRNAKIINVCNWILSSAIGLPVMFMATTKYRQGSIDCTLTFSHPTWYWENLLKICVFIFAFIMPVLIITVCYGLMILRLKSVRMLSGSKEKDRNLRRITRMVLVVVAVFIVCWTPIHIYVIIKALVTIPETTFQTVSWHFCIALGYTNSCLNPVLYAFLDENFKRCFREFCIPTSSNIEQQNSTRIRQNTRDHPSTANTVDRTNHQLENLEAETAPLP
Sequence of FAD-linked sulfhydryl oxidase ALR (P55789 whole entry): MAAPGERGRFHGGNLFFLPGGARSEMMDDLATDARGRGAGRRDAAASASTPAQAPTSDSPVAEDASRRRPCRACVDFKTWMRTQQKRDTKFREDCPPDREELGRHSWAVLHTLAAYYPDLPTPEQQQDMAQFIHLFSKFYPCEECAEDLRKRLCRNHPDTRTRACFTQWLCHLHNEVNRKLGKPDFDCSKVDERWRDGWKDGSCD
Sequence of DNA dC->dU-editing enzyme APOBEC-3G (Q9HC16 whole entry): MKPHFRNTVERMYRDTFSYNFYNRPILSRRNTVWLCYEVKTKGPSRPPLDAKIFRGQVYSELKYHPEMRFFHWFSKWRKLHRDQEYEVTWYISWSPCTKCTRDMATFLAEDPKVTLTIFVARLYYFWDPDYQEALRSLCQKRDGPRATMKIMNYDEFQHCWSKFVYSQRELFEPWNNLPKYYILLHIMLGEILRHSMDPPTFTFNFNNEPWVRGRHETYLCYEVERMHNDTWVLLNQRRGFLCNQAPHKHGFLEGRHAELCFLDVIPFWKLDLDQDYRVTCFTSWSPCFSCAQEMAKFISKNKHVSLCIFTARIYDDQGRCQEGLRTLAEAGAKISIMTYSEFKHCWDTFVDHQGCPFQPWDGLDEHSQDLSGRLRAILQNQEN
Sequence of Glyceraldehyde-3-phosphate dehydrogenase (P04406 whole entry): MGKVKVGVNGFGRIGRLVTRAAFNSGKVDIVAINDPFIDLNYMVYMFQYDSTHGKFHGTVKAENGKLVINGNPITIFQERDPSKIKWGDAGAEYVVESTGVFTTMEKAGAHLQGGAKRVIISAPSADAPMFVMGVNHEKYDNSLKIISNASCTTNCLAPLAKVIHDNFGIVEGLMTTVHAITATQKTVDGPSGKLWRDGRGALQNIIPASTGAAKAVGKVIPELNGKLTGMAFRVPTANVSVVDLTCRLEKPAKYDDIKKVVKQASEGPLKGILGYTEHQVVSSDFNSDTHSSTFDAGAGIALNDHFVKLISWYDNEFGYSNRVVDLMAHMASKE
Sequence of ATP-dependent molecular chaperone HSP82 (C4YTQ8 whole entry): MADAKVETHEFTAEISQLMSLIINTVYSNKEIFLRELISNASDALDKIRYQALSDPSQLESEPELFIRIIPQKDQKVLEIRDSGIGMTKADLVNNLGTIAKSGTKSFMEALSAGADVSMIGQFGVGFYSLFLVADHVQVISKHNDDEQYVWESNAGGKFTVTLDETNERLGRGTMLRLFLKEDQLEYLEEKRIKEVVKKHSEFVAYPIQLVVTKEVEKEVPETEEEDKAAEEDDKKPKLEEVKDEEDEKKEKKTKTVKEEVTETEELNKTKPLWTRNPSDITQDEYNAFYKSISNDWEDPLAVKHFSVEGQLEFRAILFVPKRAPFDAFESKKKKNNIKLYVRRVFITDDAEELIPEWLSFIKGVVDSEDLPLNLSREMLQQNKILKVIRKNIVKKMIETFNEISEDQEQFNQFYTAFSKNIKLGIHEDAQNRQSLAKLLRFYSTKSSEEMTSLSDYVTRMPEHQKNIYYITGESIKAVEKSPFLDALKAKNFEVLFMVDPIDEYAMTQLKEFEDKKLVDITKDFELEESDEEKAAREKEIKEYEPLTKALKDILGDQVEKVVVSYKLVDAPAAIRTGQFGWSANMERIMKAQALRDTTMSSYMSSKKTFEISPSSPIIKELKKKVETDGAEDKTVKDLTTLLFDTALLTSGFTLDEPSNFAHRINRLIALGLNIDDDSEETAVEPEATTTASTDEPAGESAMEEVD
Sequence of Genome polyprotein (P29990 2492-3391 limits assumed): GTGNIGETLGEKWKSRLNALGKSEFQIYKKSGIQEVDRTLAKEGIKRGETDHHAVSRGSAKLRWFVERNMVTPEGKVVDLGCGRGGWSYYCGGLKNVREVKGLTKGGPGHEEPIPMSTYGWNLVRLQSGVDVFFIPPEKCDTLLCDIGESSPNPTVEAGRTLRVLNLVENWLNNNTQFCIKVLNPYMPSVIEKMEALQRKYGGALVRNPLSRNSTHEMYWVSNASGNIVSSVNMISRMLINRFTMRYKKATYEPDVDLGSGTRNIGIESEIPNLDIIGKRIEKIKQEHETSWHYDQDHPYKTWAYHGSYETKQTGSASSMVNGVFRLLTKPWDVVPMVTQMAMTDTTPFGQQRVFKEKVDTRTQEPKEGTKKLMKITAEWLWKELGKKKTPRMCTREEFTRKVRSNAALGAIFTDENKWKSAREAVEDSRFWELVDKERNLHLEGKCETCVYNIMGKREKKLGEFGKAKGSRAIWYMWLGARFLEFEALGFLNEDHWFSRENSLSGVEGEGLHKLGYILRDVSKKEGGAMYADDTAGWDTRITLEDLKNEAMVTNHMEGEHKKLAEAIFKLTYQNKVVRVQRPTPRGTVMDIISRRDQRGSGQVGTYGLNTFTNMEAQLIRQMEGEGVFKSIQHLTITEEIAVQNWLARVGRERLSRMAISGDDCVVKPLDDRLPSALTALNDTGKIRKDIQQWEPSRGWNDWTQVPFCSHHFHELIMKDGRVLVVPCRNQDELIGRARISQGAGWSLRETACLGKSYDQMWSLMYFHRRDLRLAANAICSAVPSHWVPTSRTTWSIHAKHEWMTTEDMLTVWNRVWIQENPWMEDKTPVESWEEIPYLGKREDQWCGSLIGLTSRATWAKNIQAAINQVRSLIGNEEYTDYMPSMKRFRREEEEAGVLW
Sequence of Large T antigen (P03070 whole entry): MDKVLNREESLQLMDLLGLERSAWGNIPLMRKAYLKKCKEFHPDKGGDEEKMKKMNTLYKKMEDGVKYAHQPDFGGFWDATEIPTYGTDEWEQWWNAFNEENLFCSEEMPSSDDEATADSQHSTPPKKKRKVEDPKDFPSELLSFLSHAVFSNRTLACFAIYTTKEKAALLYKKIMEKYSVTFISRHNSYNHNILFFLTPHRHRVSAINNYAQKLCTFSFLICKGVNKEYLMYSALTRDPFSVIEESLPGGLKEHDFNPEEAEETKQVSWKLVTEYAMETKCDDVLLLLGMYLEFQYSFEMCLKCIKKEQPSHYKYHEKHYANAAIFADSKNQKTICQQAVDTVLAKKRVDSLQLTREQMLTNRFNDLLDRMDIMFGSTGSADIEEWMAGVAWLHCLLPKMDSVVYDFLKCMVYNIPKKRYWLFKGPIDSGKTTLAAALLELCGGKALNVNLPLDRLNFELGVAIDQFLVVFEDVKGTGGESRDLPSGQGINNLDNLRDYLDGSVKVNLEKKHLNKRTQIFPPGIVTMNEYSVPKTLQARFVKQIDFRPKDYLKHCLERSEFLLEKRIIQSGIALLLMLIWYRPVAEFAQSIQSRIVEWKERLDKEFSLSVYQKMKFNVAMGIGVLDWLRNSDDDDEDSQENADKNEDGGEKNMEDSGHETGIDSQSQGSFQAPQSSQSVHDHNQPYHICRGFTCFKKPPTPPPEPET

With CSc1ccccc1C(=O)C1CCCN(S(=O)(=O)N(C)C)C1 (stereo not drawn) the IC50 (Coagulation factor XII) was > 50 µM (inactive).

In the case of CCN(CC)c1ccc(NC(=O)c2cccc(C)c2)cc1S(=O)(=O)Nc1ccccc1OC, the IC50 [1] is reported as > 80 µM (inactive) and the IC50 [2] is reported as 51.5 µM (active).

In the case of O=C(CCCN1C(=O)c2cccc3cccc(c23)C1=O)NCc1cccnc1, the IC50 (Coagulation factor XII) is reported as > 50 µM (inactive).

With Cc1ccc(OCC(=O)NNC(=S)NC(=O)C2CC2)c(C)c1 the EC50 [3] was > 180 µM (inactive), the IC50 [4] was 3.27 µM (active) and the EC50 [5] was 1.25 µM (active). For the same compound, the EC50 [6] was 14.3 µM (active), the EC50 [7] was > 150 µM (inactive) and the IC50 [8] was 1.59 µM (active). For the same compound, the AC50 [9] was 4.32 µM (active) and the IC50 (Bcl-2-related protein A1) was > 20 µM (inactive).

In the case of CCOc1ccc(S(=O)(=O)Nc2cnc3ccccc3c2)cc1, the IC50 [10] is reported as > 100 µM (not active) and the IC50 [11] is reported as > 100 µM (inactive).

For CCOC(=O)C1(CCOc2ccccc2)CCN(Cc2ccc(C)s2)CC1, the EC50 [12] was > 92.5 µM (inactive), the EC50 [13] was > 92.5 µM (inactive) and the EC50 (Mu-type opioid receptor) was > 92.5 µM (inactive).

In the case of COc1ccc(C2CC(=O)C(C(c3ccc(O)cc3)C3C(=O)CC(c4ccc(OC)cc4)CC3=O)C(=O)C2)cc1 (stereo not drawn), the IC50 (Large T antigen) is reported as 37.3 µM (active) and the IC50 (Coagulation factor XII) is reported as > 50 µM (inactive).

In the case of COc1ccc(-c2oc3ncnc(N)c3c2-c2ccccc2)cc1, the IC50 [4] is reported as 7.81 µM (active), the IC50 [8] is reported as 3.58 µM (active) and the IC50 (Bcl-2-related protein A1) is reported as > 20 µM (inactive).

With COc1ccccc1NS(=O)(=O)c1cccc(NC(=O)c2ccc3ccccc3n2)c1 the EC50 (HEK293 [14]) was 6.61 µM (active), the IC50 (HEK293 [15]) was > 20 µM (inactive) and the IC50 (HEK293 [16]) was 7.38 µM (active).

In the case of NS(=O)(=O)c1ccc(-c2ccc(C=C3C(=O)NC(=O)NC3=O)o2)cc1, the AC50 [17] is reported as 1.16 µM (active), the IC50 [1] is reported as 27.4 µM (inactive) and the IC50 (Genome polyprotein) is reported as > 100 µM (active).

For COc1ccc(C(C)(C)C)cc1S(=O)(=O)Nc1cccnc1, the IC50 [11] was 26.4 µM (active).

With COc1cc(Br)cc(/C=N/NC(=O)Cc2ccc(C(F)(F)F)cc2[N+](=O)[O-])c1O the EC50 [12] was > 92.4 µM (inactive), the EC50 [13] was > 92.4 µM (inactive) and the EC50 (Streptococcus) was 2.42 µM (active). For the same compound, the EC50 [18] was 1.84 µM (active), the EC50 [19] was > 120 µM (not active) and the AC50 (INS1) was 4.33 µM (active). The EC50 [20] was 12.6 µM (active), the EC50 (Mu-type opioid receptor) was > 92.4 µM (inactive) and the EC50 [21] was 9.21 µM (active).

— ChEMBL document CHEMBL1201862, “PubChem BioAssay data set” (2004)
